Tests used:
[1] = system: transplanted rice; test: Crop tolerance of transplanted rice (Table 7); assay type: in vivo; details: rating 0-10
Excerpt: (§1) Methyl 2-[[[[(4-methoxy-6-methyl-1,3,5-triazin-2-yl)amino]carbonyl]amino]sulfonyl]benzoate (Compound 1) and mixtures thereof with other compounds were applied as a spray (using a hand sprayer) to rice (either transplanted or direct seeded) in several rice growing areas in Southeast Asia and in the U.S. Tables 1-28 contain the results of these tests and clearly exemplify the utility of this invention. The details of each application are included in the appropriate table. [drawing 2]

[2] = system: rice; test: Effects on rice growth in Thailand, phytotoxicity (Table 4); assay type: in vivo; details: scale 0-10
Excerpt: as §1

COC(=O)c1ccccc1S(=O)(=O)NC(=O)Nc1nc(C)nc(OC)n1 [Compound 1, Methyl 2-[[[[(4-methoxy-6-methyl-1,3,5-triazin-2-yl)amino]carbonyl]amino]sulfonyl]benzoate]
1.0: PHYTOTOXICITY ([2]; applied 14 DAS, 3 GAI/HA) | PHYTOTOXICITY ([2]; applied 14 DAS, 6 GAI/HA) | PHYTOTOXICITY ([2]; applied 21 DAS, 6 GAI/HA)
1.67: PHYTOTOXICITY ([2]; applied 7 DAS, 3 GAI/HA) | PHYTOTOXICITY ([2]; applied 7 DAS, 6 GAI/HA)
0.67: PHYTOTOXICITY ([2]; applied 21 DAS, 3 GAI/HA)
0: CROP TOLERANCE ([1]; 3 GAI/HA, 1 WAA) | CROP TOLERANCE ([1]; 3 GAI/HA, 2WAA) | CROP TOLERANCE ([1]; 3 GAI/HA, 4WAA) | CROP TOLERANCE ([1]; 3 GAI/HA, 6WAA) | CROP TOLERANCE ([1]; 4 GAI/HA, 1 WAA) | CROP TOLERANCE ([1]; 4 GAI/HA, 2WAA) | CROP TOLERANCE ([1]; 4 GAI/HA, 4WAA) | CROP TOLERANCE ([1]; 4 GAI/HA, 6WAA) | CROP TOLERANCE ([1]; 6 GAI/HA, 2WAA) | CROP TOLERANCE ([1]; 6 GAI/HA, 4WAA) | CROP TOLERANCE ([1]; 6 GAI/HA, 6WAA) | CROP TOLERANCE ([1]; 8 GAI/HA, 4WAA) | CROP TOLERANCE ([1]; 8 GAI/HA, 6WAA) | PHYTOTOXICITY ([2]; applied 28 DAS, 3 GAI/HA) | PHYTOTOXICITY ([2]; applied 28 DAS, 6 GAI/HA)
1: CROP TOLERANCE ([1]; 6 GAI/HA, 1 WAA) | CROP TOLERANCE ([1]; 8 GAI/HA, 1 WAA) | CROP TOLERANCE ([1]; 8 GAI/HA, 2WAA)

— patent publication EP0377642B1, “HERBICIDES FOR WEED CONTROL IN RICE” (E.I. DU PONT DE NEMOURS AND COMPANY, priority 1987, dated 1989)
